This passage reports melting point results from patent US6911469B2, “Sulfonamide compounds and pharmaceutical use thereof” (Fujisawa Pharmaceutical Co., Ltd., priority 1997, dated 2005).

By melting point is commonly meant the temperature of the solid-liquid transition.

Regarding `Cc1nc2ccc(C(=O)NS(=O)(=O)c3ccccc3)nc2n1Cc1ccc(CC2CCCCC2)cc1Cl` [Example 75, 5-(benzenesulfonylcarbamoyl)-3-(2-chloro-4-(cyclohexylmethyl)benzyl)-2-methyl-3H-imidazo[4,5-b]pyridine], the melting point is 170 to 171 °C.

`Cc1nc2ccc(C(=O)NS(=O)(=O)c3ccccc3)nc2n1Cc1ccc(/C=C/c2ccccc2)cc1Cl` [Example 76, (E)-5-(benzenesulfonylcarbamoyl)-3-(2-chloro-4-(2-phenylethenyl)benzyl)-2-methyl-3H-imidazo[4,5-b]pyridine] returned a melting point of 262 to 263 °C.

Turning to `Cc1nc2ccc(C(=O)NS(=O)(=O)c3ccccc3)nc2n1Cc1ccc(OCc2ccccc2)cc1Cl` [Example 77, 5-(benzenesulfonylcarbamoyl)-3-(4-benzyloxy-2-chlorobenzyl)-2-methyl-3H-imidazo[4,5-b]pyridine], the melting point lay within 190 to 191 °C.

`COc1ccc(Cn2c(C)nc3ccc(C(=O)NS(=O)(=O)c4ccccc4)nc32)c(Cl)c1` [Example 78, 5-(benzenesulfonylcarbamoyl)-3-(2-chloro-4-methoxybenzyl)-2-methyl-3H-imidazo[4,5-b]pyridine] yielded a melting point of 151 to 152 °C.

The compound `Cc1nc2ccc(C(=O)NS(=O)(=O)c3ccccc3)nc2n1Cc1ccc(OC(C)C)cc1Cl` [Example 79, 5-(benzenesulfonylcarbamoyl)-3-(2-chloro-4-isopropoxybenzyl)-2-methyl-3H-imidazo[4,5-b]pyridine] showed a melting point of 177 to 179 °C.

Turning to `CCCCOc1ccc(Cn2c(C)nc3ccc(C(=O)NS(=O)(=O)c4ccccc4)nc32)c(Cl)c1` [Example 80, 5-(benzenesulfonylcarbamoyl)-3-(4-(n-butoxy)-2-chlorobenzyl)-2-methyl-3H-imidazo[4,5-b]pyridine], the melting point lay within 181 to 182 °C.

For `Cc1nc2ccc(C(=O)NS(=O)(=O)c3ccccc3)nc2n1Cc1ccc(OCC2CCCCC2)cc1Cl` [Example 81, 5-(benzenesulfonylcarbamoyl)-3-(2-chloro-4-((cyclohexylmethyl)oxy)benzyl)-2-methyl-3H-imidazo[4,5-b]pyridine], the melting point was 122 to 125 °C.

`Cc1nc2ccc(C(=O)NS(=O)(=O)c3ccccc3)nc2n1Cc1ccc(OCCN(C)c2ccccn2)cc1Cl` [Example 82, 5-(benzenesulfonylcarbamoyl)-3-(2-chloro-4-((2-(N-methyl-N-(2-pyridinyl)amino)ethyl)oxy)benzyl)-2-methyl-3H-imidazo[4,5-b]pyridine] displayed a melting point of 104 to 105 °C.

In turn, `CSc1ccc(Cn2c(C)nc3ccc(C(=O)NS(=O)(=O)c4ccccc4)nc32)c(Cl)c1` [Example 83, 5-(benzenesulfonylcarbamoyl)-3-(2-chloro-4-(methylthio)benzyl)-2-methyl-3H-imidazo[4,5-b]pyridine] returned a melting point of 165 to 166 °C.

Compound `Cc1nc2ccc(C(=O)NS(=O)(=O)c3ccccc3)nc2n1Cc1ccc([S+](C)[O-])cc1Cl` (stereo not shown) [Example 84, 5-(benzenesulfonylcarbamoyl)-3-(2-chloro-4-(methylsulfinyl)benzyl)-2-methyl-3H-imidazo[4,5-b]pyridine] came in with a melting point of 230 to 231 °C.

`Cc1nc2ccc(C(=O)NS(=O)(=O)c3ccccc3)nc2n1Cc1ccc(C=O)cc1Cl` [Example 92, 5-(benzenesulfonylcarbamoyl)-3-(2-chloro-4-formylbenzyl)-2-methyl-3H-imidazo[4,5-b]pyridine] gave a melting point of 253 to 255 °C.

`Cc1nc2ccc(C(=O)NS(=O)(=O)c3ccccc3)nc2n1Cc1ccc(C=C2SC(=O)NC2=O)cc1Cl` [Example 93, 5-(benzenesulfonylcarbamoyl)-3-[2-chloro-4-[(2,4-dioxo-1,3-thiazolidine-5-ylidene)methyl]benzyl]-2-methyl-3H-imidazo[4,5-b]pyridine]: the melting point lay within 271 to 274 °C.

`CCCCCS(=O)(=O)NC(=O)c1ccc2nc(C)n(Cc3ccc(C(F)(F)F)cc3Cl)c2n1` [Example 102-2, 3-[2-chloro-4-(trifluoromethyl)-benzyl]-2-methyl-5-(1-pentanesulfonylcarbamoyl)-3H-imidazo[4,5-b]pyridine] returned a melting point of 154 to 155 °C.

On to `CCCCCS(=O)(=O)NC(=O)c1cc(C)c2nc(C)n(Cc3ccc4ccccc4c3Br)c2n1` [Example 104-1, 3-(1-bromonaphthalen-2-ylmethyl)-2,7-dimethyl-5-(pentanesulfonylcarbamoyl)-3H-imidazo[4,5-b]pyridine], for which the melting point is 210 to 211 °C.

In turn, `Cc1cc(C(=O)NS(=O)(=O)c2ccccc2)nc2c1nc(C)n2Cc1ccc2ccccc2c1Br` [Example 104-2, 5-(benzenesulfonylcarbamoyl)-3-(1-bromonaphthalen-2-ylmethyl)-2,7-dimethyl-3H-imidazo[4,5-b]pyridine] registered a melting point of 229 to 230 °C.

Take `Cc1cc(C(=O)NS(=O)(=O)/C=C/c2ccccc2)nc2c1nc(C)n2Cc1ccc2ccccc2c1Br` [Example 104-3, (E)-3-(1-bromonaphthalen-2-ylmethyl)-2,7-dimethyl-5-((2-phenylethenyl)sulfonylcarbamoyl)-3H-imidazo[4,5-b]pyridine]: the melting point lay in the range of 262 to 263 °C.

`Cc1cc(C(=O)NS(=O)(=O)c2ccc(Cl)s2)nc2c1nc(C)n2Cc1ccc2ccccc2c1Br` [Example 104-6, 3-(1-bromonaphthalen-2-ylmethyl)-2,7-dimethyl-5-((5-chlorothiophen-2-yl)sulfonylcarbamoyl)-3H-imidazo[4,5-b]pyridine] registered a melting point of 213 to 214 °C.

Compound `CCCCCS(=O)(=O)NC(=O)c1cc(C)c2nc(C)n(Cc3ccc(Br)cc3Cl)c2n1` [Example 105, 3-(4-bromo-2-chlorobenzyl)-2,7-dimethyl-5-(pentanesulfonylcarbamoyl)-3H-imidazo[4,5-b]pyridine] gave a melting point of 148 to 149 °C.

Take `Cc1cc(C(=O)NS(=O)(=O)/C=C/c2ccccc2)nc2c1nc(C)n2Cc1ccc(Br)cc1Cl` [Example 106-2, (E)-3-(4-bromo-2-chlorobenzyl)-2,7-dimethyl-5-[(2-phenylethenyl)sulfonylcarbamoyl]-3H-imidazo[4,5-b]pyridine]: the melting point fell in the range of 225 to 227 °C.

The compound `Cc1cc(C(=O)NS(=O)(=O)c2ccc(Cl)s2)nc2c1nc(C)n2Cc1ccc(Br)cc1Cl` [Example 106-3, 3-(4-bromo-2-chlorobenzyl)-5-[(5-chlorothiophen-2-yl)sulfonylcarbamoyl]-2,7-dimethyl-3H-imidazo[4,5-b]pyridine] showed a melting point of 214 to 215 °C.

As for `Cc1nc2ccc(C(=O)NS(=O)(=O)c3ccccc3)nc2n1Cc1ccc(C#N)cc1Cl` [Example 108, 5-(benzenesulfonylcarbamoyl)-3-(2-chloro-4-cyanobenzyl)-2-methyl-3H-imidazo[4,5-b]pyridine], the melting point is 242 to 243 °C.

`Cc1nc2ccc(C(=O)NS(=O)(=O)/C=C/c3ccccc3)nc2n1Cc1ccc(C(F)(F)F)cc1Cl` [Example 109-1, (E)-3-(2-chloro-4-(trifluoromethyl)benzyl)-2-methyl-5-((2-phenylethenyl)sulfonylcarbamoyl)-3H-imidazo[4,5-b]pyridine] returned a melting point of 140 to 142 °C.
